The subject of one assay is AsPC-1. Put plainly: MTT antiproliferative assay, AsPC-1. In kind it is cell-based, human. The note with it: Homo sapiens, ASPC1, 72 h, read-out: IC50 AsPC-1. (Tetrazolium dyes change colour on reduction, which living cells bring about.)
The subject of the next assay is NIH3T3. Briefly: MTT assay, NIH3T3 non-cancer cell line. The note with it: Mus musculus, NIH3T3, 72 h, read-out: IC50 NIH3T3. In kind it is cell-based.
The next assay has as its target AKT1 (Homo sapiens, UniProt P31749). Briefly: Radiometric kinase assay. In kind it is biochemical. The note with it: read-out: Kinase inhibition (%) AKT1.
The target of the next assay is AKT2 (Homo sapiens, UniProt P31751). Put plainly: Radiometric kinase assay. In kind it is biochemical. The following applies: read-out: Kinase inhibition (%) AKT2.
Sequence of AKT2 (P31751 whole entry): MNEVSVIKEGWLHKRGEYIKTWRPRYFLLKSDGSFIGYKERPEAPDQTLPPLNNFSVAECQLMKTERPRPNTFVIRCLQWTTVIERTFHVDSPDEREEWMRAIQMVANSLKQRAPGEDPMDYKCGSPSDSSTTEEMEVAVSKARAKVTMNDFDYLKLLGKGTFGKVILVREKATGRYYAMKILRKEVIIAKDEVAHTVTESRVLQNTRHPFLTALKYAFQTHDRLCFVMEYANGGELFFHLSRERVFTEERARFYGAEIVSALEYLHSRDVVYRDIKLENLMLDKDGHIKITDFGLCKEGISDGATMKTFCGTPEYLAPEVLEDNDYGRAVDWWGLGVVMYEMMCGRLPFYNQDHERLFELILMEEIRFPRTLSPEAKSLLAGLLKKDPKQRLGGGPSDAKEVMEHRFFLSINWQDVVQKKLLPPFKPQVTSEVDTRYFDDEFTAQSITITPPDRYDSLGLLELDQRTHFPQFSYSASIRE
In another assay the target is CDK2/cyclin A (Homo sapiens, UniProt P24941). Briefly: Radiometric kinase assay. In kind it is biochemical. The following applies: read-out: Kinase inhibition (%) CDK2/cyclin A.
Another assay has as its target CHEK1 (Homo sapiens, UniProt O14757). Briefly: Radiometric kinase assay. The note with it: read-out: Kinase inhibition (%) CHEK1. The assay is classed as biochemical.
For a further assay, the target named is EGFR (Homo sapiens, UniProt P00533). Briefly: Radiometric kinase assay. The assay is classed as biochemical. The note with it: read-out: Kinase inhibition (%) EGFR.
Sequence of EGFR (P00533 25-1210): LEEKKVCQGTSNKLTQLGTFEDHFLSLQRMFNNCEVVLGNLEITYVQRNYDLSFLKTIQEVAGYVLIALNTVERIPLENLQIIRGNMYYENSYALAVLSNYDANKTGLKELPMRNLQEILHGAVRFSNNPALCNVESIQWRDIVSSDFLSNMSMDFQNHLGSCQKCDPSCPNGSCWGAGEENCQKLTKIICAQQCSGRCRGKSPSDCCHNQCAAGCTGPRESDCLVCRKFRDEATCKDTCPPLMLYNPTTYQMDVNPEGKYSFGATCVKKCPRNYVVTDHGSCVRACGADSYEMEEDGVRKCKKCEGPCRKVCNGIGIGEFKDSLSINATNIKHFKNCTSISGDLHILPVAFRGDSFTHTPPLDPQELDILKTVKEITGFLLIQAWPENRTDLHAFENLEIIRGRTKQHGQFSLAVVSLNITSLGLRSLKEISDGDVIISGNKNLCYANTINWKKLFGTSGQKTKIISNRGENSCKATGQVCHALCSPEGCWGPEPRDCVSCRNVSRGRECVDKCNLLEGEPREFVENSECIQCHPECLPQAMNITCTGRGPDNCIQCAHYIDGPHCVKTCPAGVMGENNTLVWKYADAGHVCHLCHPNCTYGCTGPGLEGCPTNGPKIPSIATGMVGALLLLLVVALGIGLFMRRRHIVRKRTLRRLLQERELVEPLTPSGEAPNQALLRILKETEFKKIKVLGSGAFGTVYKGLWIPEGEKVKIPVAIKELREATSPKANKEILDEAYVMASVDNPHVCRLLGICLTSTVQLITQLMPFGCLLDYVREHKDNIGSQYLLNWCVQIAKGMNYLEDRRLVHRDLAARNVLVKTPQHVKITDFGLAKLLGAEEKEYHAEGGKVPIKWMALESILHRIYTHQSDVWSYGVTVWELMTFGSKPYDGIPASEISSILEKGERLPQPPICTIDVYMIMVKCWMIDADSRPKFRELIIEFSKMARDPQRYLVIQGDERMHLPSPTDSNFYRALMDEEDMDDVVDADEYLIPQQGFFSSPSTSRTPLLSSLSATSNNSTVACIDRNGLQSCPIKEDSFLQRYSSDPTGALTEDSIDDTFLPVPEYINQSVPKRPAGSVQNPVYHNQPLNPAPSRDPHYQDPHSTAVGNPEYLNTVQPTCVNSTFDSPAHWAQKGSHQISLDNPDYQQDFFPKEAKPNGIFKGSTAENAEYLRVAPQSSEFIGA
In a further assay the target is ERBB2 (Her-2) (Homo sapiens, UniProt P04626). Put plainly: Radiometric kinase assay. The note with it: read-out: Kinase inhibition (%) ERBB2 (Her-2). The assay is classed as biochemical.
The next assay addresses MAP2K1 (Homo sapiens, UniProt Q02750). Briefly: Radiometric kinase assay. The following applies: read-out: Kinase inhibition (%) MAP2K1. The assay is classed as biochemical.
Another assay concerns the target PDGFRA (PDGFRα) (Homo sapiens, UniProt P16234). Put plainly: Radiometric kinase assay. In kind it is biochemical. The following applies: read-out: Kinase inhibition (%) PDGFRA (PDGFRα).
The next assay deals with ROS1 (Homo sapiens, UniProt P08922). Briefly: Radiometric kinase assay. The following applies: read-out: Kinase inhibition (%) ROS1. In kind it is biochemical.
The subject of a further assay is AsPC-1 cells. Put plainly: Apoptosis by Hoechst 33,258 staining. In kind it is cell-based, human. The note with it: AsPC-1, 10 and 30 µM, 48 h.

One may read the IC50 as the concentration that gives 50% inhibition.

Sequence of MAP2K1 (Q02750 whole entry): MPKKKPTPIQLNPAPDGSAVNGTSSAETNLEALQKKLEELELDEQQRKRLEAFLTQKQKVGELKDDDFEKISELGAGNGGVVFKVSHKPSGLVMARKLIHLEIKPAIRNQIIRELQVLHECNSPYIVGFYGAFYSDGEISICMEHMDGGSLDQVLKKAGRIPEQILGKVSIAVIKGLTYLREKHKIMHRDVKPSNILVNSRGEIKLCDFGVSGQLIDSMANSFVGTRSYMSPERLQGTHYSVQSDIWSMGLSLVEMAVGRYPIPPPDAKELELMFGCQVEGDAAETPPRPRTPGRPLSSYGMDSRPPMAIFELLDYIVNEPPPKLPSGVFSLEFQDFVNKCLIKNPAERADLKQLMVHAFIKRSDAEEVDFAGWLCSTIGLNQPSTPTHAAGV
Sequence of PDGFRA (PDGFRα) (P16234 24-1089): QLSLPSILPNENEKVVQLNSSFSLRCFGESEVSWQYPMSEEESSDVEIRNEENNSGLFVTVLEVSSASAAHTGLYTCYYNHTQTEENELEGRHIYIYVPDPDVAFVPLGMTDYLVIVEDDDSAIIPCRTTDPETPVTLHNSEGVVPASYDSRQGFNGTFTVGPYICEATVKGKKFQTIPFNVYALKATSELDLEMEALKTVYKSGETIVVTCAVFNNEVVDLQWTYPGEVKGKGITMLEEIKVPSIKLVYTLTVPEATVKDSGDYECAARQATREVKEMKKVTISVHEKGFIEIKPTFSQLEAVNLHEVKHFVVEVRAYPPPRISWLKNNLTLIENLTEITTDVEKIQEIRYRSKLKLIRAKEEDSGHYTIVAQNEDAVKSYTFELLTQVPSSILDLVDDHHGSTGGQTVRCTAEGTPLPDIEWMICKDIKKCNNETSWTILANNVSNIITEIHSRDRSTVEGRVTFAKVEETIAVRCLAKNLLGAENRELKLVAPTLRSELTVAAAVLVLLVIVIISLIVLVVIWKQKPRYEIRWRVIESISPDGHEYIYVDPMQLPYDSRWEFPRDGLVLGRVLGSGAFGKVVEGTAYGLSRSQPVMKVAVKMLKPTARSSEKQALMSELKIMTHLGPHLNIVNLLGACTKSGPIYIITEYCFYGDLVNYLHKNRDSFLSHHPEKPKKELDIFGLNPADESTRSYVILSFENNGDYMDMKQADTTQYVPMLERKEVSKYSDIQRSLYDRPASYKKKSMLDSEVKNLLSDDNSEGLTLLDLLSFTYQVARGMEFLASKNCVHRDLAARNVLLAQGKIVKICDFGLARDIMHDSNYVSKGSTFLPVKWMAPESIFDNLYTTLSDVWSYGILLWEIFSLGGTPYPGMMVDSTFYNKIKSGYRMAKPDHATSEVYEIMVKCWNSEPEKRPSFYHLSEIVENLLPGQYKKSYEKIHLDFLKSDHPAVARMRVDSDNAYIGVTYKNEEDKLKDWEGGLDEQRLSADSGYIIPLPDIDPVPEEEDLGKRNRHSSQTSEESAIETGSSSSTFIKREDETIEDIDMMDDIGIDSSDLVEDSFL
Sequence of AKT1 (P31749 whole entry): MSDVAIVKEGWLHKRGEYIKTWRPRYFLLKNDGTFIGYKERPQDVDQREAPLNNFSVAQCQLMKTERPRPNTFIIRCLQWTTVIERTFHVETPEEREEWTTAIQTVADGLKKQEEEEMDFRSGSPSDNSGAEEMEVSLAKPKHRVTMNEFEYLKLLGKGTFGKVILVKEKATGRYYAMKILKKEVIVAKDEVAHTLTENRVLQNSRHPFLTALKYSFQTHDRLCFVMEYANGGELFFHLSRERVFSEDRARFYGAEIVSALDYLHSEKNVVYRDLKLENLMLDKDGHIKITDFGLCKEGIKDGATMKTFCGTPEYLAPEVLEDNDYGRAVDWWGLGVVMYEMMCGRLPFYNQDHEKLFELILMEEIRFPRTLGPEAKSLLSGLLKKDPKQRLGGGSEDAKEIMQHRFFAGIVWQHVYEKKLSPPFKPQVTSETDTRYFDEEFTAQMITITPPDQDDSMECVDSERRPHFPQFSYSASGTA
Sequence of CHEK1 (O14757 whole entry): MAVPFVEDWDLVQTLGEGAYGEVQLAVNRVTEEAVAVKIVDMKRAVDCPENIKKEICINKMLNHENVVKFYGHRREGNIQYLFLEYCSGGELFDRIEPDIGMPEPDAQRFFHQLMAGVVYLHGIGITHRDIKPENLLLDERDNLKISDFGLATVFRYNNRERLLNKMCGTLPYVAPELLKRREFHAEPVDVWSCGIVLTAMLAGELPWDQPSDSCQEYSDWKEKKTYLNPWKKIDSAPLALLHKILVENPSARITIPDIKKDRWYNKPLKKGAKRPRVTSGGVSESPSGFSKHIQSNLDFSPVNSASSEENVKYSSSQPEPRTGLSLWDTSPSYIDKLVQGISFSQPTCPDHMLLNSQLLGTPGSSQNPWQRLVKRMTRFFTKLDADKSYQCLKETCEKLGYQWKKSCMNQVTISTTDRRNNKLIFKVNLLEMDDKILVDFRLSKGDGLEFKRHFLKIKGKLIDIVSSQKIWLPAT

As to `O=C1C=C(Nc2ccc(OCc3cn(Cc4ccc(Cl)c(Cl)c4)nn3)cc2)C(=O)c2ccccc21` [Compound 4e, 2-((4-((1-(3,4-Dichlorobenzyl)−1H-1,2,3-triazol-4-yl)methoxy)phenyl)amino) naphthalene-1,4-dione], the IC50 was 1.1 ± 0.2 µM in the assay on AsPC-1 and 6.5 ± 1.2 µM with NIH3T3. Also, the inhibition at 10 µM was 15% on AKT1; -7% at AKT2; 9% on CDK2/cyclin A; -12% at CHEK1; -3% at EGFR; 2% at ERBB2 (Her-2). Besides, the values for the inhibition at 10 µM on MAP2K1, at PDGFRA (PDGFRα) and on ROS1 were 4%, 43% and -2%, respectively. For the same compound, the “Apoptosis induction (nuclear morphology)” value in the assay on AsPC-1 cells is listed as “characteristic features of apoptosis including densely packed chromatin within the nucleus as well as nuclear fragmentation”.

The values are drawn from paper PMC11850817 (Scientific Reports, 2025).
